Laboratory results reported in the NIST ThermoML archive (doi:10.1016/j.jct.2019.02.028).

Settings: Gas, Burnett expansion method

[He] [helium]
Settings | mass density [kg/m3]
323.66 K, 875.31 kPa | 1.297
323.67 K, 386.6 kPa | 0.5746
323.67 K, 1986.4 kPa | 2.9278
323.67 K, 2996.7 kPa | 4.3975
323.68 K, 581.96 kPa | 0.8635
323.68 K, 1318.2 kPa | 1.9481
323.68 K, 4542.5 kPa | 6.6206
333.58 K, 398.41 kPa | 0.5744
333.58 K, 901.91 kPa | 1.2964
333.58 K, 1358 kPa | 1.9472
333.58 K, 3086.7 kPa | 4.3949
333.58 K, 4675.1 kPa | 6.6128
333.59 K, 2046.3 kPa | 2.926
333.62 K, 599.5 kPa | 0.8631
343.5 K, 616.99 kPa | 0.8628
343.5 K, 1397.8 kPa | 1.9464
343.51 K, 928.6 kPa | 1.2959
343.51 K, 3177 kPa | 4.3922
343.51 K, 4808.1 kPa | 6.6049
343.52 K, 410.1 kPa | 0.5742
343.52 K, 2106 kPa | 2.9243
353.39 K, 421.94 kPa | 0.5741
353.39 K, 634.63 kPa | 0.8624
353.39 K, 3267.2 kPa | 4.3896
353.39 K, 4938.7 kPa | 6.5971
353.4 K, 954.95 kPa | 1.2953
353.4 K, 1437.5 kPa | 1.9455
353.4 K, 2165.8 kPa | 2.9225
363.2 K, 2225.1 kPa | 2.9208
363.28 K, 1476.9 kPa | 1.9446
363.28 K, 5072.4 kPa | 6.5893
363.29 K, 433.46 kPa | 0.5739
363.29 K, 433.47 kPa | 0.5739
363.29 K, 652.06 kPa | 0.862
363.29 K, 652.07 kPa | 0.862
363.29 K, 981.18 kPa | 1.2947
363.29 K, 2225 kPa | 2.9208
363.29 K, 3356.7 kPa | 4.387
